The text below walks through data of patent publication US11478519B2, “Nutritional supplement containing iron” (CURA GLOBAL HEALTH (BVI) LIMITED, priority 2012, dated 2022).

For the series, the system named is Aspergillus oryzae. Here is the method:
The dose of iron was calculated as a concentration of iron elements rather than the concentration of salt; to enable comparison with the iron content in the fungal biomass. All fungal samples were thoroughly washed with deionizer water prior to testing by the ICP-OES method.
Other inorganic minerals such as selenium and zinc have been used to produce selenium or zinc enriched yeast, but the use of filamentous fungi has not been reported. […] A similar process (FIG. 2) was used for growing Aspergillus oryzae fortified with either sodium selenite or zinc sulfate. The dose of either inorganic salt was calculated as a concentration of the elements rather than the concentration of salt to enable comparison with the mineral content in the fungal biomass.

Consider `O=S(=O)([O-])[O-].[Zn+2]` [Zinc, zinc sulfate], for which the “effect on fungal yield” value was “increased fungal yield”. With `O=S(=O)([O-])[O-].O=S(=O)([O-])[O-].O=S(=O)([O-])[O-].[Fe+3].[Fe+3]` [ferric sulfate, Ferric sulfate (Fe2(SO4)3.2H2O)], the “toxicity to Aspergillus oryzae” value (Fe3+ 1-200 mg/L in corn-ethanol Syrup) was “not toxic”.
